Our source for the IC50 values is patent US6653340B1, “Compounds useful in the complement, coagulat and kallikrein pathways and method for their preparation” (BioCryst Pharmaceuticals, Inc., priority 1997, dated 2003).

Molecules are shown by their SMILES.

Format in all cases: biochemical
In one test the target is Factor Xa (Homo sapiens, UniProt P00742). The test can be described thus: Factor Xa inhibition assay (Chromozyme X substrate). The settings on record: Factor Xa 0.5 U/mL, pH 8.0; read-out: Xa (Serine Protease Inhibitory Data, IC50). How it is done: (§1) The compounds to be tested were dissolved in a stock solution of DMSO at 10.0 or 100 mM. A portion of this stock solution was added to assay buffer in a final volume of 100 μL containing the enzyme of interest. Controls included buffer alone and enzyme solutions to which DMSO was added. Substrate was added to the reaction wells immediately or after incubation at room temperature. The reaction rates were measured spectrophotometrically by the generation of product at 405 nm for 200 sec. Background absorbance at 690 nm was measured and subtracted from the absorbance at 405 nm for each well.
Factor Xa, sequence (P00742 235-488 limits assumed): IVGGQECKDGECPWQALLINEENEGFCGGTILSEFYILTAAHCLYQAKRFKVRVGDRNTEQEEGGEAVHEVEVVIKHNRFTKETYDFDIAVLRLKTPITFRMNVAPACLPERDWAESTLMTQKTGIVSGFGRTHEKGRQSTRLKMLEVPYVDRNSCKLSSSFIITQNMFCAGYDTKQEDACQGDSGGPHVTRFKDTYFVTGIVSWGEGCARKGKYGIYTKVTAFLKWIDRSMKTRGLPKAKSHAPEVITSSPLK
Factor Xa, sequence (P00742 41-179 partner limits assumed): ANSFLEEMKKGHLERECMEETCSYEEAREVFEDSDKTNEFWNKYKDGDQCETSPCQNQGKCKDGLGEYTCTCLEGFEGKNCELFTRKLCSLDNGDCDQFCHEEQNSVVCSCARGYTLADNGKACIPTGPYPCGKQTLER
(§2) The reaction rate for enzyme alone was compared to the rate of enzyme in the presence of inhibitor and the percent inhibition was calculated as shown below:
(§3) Percent Inhibition=[Rate without inhibitor−Rate with inhibitor)/(Rate without inhibitor)]×100
(§4) Compounds in the examples were tested a minimum of three times.
(§5) Thrombin was assayed at 12.5 U/ml using 0.37 mM N-Benzoyl-Phe-Val-Arg-p-nitroanilide (Svendsen, L.; Blomback B.; Blomback, M.; Olsson, P. I. Substrate for determination of trypsin, thrombin and thrombin-like enzymes. Folia Haematol. 1972, 98, 446-454.) as the substrate in 100 mM HEPES, 10 mM CaCl2, 10% DMSO, pH 7.5. Factor Xa, 0.5 U/mL, was assayed in 50 mM HEPES, 150 mM NaCl, 10 mM CaCl2, pH 8.0 using Chromozyme X, 0.17 mM, as the substrate. Plasmin (0.004 units/mL), factor XIIa ([…]) and kallikrein (0.02 units/mL were assayed using modifications of the techniques originally described by McRae, et al. (Biochemistry. 1981, 20, 7196-7206). The assays were run in 200 mM triethanolamine, pH 7.8 and 100 mM Tris-HCl, 100 mM EDTA, […] using Z-Lys-SBzl, 0.13 mM and […], 0.16 mM, as substrates, respectively.

In a further test the target is T1, C1s (Homo sapiens, UniProt P09871).
T1 sequence (P09871 16-688): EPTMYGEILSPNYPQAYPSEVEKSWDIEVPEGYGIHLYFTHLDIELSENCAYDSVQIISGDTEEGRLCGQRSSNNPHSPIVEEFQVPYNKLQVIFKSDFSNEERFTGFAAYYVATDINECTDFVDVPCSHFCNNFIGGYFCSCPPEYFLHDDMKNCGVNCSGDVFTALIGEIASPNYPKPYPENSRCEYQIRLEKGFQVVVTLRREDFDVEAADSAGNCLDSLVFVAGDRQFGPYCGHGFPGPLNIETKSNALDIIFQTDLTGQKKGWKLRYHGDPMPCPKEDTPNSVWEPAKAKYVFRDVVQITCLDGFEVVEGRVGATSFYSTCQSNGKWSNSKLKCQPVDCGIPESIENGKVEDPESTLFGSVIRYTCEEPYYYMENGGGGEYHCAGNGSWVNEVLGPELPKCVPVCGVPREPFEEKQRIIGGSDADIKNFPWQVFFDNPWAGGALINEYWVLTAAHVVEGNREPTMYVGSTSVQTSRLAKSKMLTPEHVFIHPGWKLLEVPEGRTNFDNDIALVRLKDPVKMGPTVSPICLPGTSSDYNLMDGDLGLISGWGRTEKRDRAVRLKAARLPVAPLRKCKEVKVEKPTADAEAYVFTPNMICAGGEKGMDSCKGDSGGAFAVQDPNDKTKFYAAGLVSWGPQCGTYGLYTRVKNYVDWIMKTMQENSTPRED
The test can be described thus: C1s esterolytic inhibition assay (Z-Lys-SBzl substrate). The settings on record: Z-Lys-SBzl 1.29 mM, C1s 3 to 13 nM; read-out: Cls (Serine Protease Inhibitory Data, IC50). On the procedure: as §1, §2, §3, §4
C1s esterolytic activity was assayed using a modification of the technique originally described by Kam using Z-Lys-SBzl, 1.29 mM as substrate and C1s at 3 to 13 nM.

The target of the next test is kallikrein (Homo sapiens, UniProt P03952). The test is described as follows: Kallikrein inhibition assay (thioester substrate). Conditions: kallikrein 0.02 units/mL; read-out: Kallikrein (Serine Protease Inhibitory Data, IC50). How it is done: as §1, §2, §3, §4, §5
kallikrein, sequence (P03952 whole entry): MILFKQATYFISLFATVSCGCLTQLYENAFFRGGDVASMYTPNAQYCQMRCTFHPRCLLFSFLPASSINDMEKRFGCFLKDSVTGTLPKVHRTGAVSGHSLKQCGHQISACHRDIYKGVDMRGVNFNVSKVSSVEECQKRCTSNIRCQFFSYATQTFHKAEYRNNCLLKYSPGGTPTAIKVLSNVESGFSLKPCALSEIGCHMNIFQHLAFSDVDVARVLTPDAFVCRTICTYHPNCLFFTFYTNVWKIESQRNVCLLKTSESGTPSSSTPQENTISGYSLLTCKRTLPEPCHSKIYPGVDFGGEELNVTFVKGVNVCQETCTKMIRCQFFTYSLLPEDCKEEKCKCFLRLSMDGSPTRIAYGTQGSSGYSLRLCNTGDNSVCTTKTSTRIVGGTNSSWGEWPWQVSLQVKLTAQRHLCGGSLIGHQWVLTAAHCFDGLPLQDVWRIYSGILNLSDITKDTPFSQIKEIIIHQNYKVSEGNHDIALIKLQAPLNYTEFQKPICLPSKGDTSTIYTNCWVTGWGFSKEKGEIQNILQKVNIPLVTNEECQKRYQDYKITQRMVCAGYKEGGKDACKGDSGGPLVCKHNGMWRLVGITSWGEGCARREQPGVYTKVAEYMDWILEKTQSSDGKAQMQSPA
In another test the target is Thrombin (Homo sapiens, UniProt P00734). The test can be described thus: Thrombin inhibition assay (N-Benzoyl-Phe-Val-Arg-p-nitroanilide substrate). Conditions: thrombin 12.5 U/ml, pH 7.5; read-out: Thrombin (Serine Protease Inhibitory Data, IC50). How it is done:
as §1, §2, §3, §4, §5

The target in another test is T2, factor XIIa (Homo sapiens, UniProt P00748).
T2 sequence (P00748 373-615 limits assumed): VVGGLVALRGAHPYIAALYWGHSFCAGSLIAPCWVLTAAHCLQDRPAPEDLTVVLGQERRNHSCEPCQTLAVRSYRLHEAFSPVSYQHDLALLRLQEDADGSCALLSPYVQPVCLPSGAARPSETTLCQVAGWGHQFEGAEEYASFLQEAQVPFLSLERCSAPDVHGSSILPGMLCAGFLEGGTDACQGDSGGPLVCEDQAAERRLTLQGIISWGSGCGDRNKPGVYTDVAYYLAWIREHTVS
The test can be described thus: Factor XIIa inhibition assay (thioester substrate). Conditions: read-out: XIIa (Serine Protease Inhibitory Data, IC50). How it is done:
as §1, §2, §3, §4, §5

For the next test, the target named is Factor D (Homo sapiens, UniProt P00746). The test can be described thus: Factor D esterolytic inhibition assay (Z-Lys-SBzl substrate). On the set-up: Factor D was purified from the urine of a patient with Fanconi syndrome by ion exchange chromatography; from tissue; host or cells: urine of a patient with Fanconi syndrome. The settings on record: Z-Lys-SBzl 1.29 mM, pH 7.5, 10% DMSO; read-out: Factor D (Serine Protease Inhibitory Data, IC50).
Factor D, sequence (P00746 26-253): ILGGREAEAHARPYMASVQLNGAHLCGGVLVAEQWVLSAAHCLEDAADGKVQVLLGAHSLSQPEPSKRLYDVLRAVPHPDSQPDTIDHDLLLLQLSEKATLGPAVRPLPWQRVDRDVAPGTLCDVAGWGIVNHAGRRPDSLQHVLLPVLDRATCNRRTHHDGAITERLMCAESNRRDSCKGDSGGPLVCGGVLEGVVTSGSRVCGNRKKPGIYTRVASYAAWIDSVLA
Source text: A modification of the procedure of Volanakis (Volankis, J. E.; Barnum, S. R.; Kilpatrick, J. M. Purification and properties of human factor D. Methods in Enzymol. 1993, 223, 82-97) for purification of Factor D was utilized as described by Yamauchi (Yamauchi, Y.; Stevens, J. W.; Macon, K. J.; Volanakis, J. E. Recombinant and native zymogen forms of human complement factor D. J. Immunol. 1994, 152, 3645-3653. Briefly, Factor D was purified from the urine of a patient with Fanconi syndrome by ion exchange chromatography using BioRex 70 and two rounds of ion-exchange chromatography in a Pharmacia FPLC system using a HR5/5 Mono S column.
as §1, §2, §3, §4
An established esterolytic assay for the measurement of Factor D activity and inhibition of Factor D activity was used (Kam, C. M.; McRae, B. J.; Harper, J. W.; Niemann, M. A.; Volanakis, J. E.; Powers, J. C. Human complement proteins D, C2, and B Active site mapping with peptide thioester substrates. J Biol. Chem. 1987, 262, 3444-3451). […] Hydrolysis of this compound by Factor D liberated a free sulfhydryl group which is then reacted with 5,5′-dithiobis(2nitrobenzoic acid) producing an intense yellow color (Habeeb, A. F. S. A. Reaction of protein sulfhydryl groups with Ellman's Reagent. Methods in Enzymol. 1976, 25, 457-464.). The assays were performed in 96 well microtiter plates and rates of hydrolysis were monitored at 405 nm in a Anthos Labtec HT2 plate reader. Hydrolysis rates were reported as change in mOD/min. The assay was conducted in 100 mM HEPES, 500 mM NaCl, pH 7.5 containing 10% DMSO in a final volume of 200 μL per well.

Another test addresses Plasmin (Homo sapiens, UniProt P00747). The test is described as follows: Plasmin inhibition assay (thioester substrate). The settings on record: plasmin 0.004 units/mL; read-out: Plasmin (Serine Protease Inhibitory Data, IC50). On the procedure: as §1, §2, §3, §4, §5

Plasmin, sequence (P00747 581-810 limits assumed, species assumed): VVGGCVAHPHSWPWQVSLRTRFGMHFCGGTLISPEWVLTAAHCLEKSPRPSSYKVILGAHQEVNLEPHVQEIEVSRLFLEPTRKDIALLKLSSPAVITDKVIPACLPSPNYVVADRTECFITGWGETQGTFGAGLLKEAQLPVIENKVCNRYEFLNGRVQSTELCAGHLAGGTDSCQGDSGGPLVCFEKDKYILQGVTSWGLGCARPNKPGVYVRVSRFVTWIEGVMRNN
Plasmin, sequence (P00747 97-580 partner limits assumed, species assumed): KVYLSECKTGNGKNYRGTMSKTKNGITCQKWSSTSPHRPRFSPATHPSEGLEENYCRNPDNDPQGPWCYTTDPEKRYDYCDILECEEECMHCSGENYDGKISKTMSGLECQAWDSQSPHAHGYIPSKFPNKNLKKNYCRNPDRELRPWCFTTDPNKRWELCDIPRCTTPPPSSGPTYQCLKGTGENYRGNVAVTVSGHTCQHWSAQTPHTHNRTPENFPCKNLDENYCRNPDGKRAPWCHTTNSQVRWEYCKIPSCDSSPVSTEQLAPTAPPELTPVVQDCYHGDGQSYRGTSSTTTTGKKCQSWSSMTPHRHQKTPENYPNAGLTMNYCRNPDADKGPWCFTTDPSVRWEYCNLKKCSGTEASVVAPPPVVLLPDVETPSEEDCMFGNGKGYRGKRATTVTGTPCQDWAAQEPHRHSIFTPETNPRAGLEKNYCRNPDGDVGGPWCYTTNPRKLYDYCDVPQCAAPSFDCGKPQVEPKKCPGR

Consider `N=C(N)c1cc2ccc(OC(=O)c3ccccc3)cc2s1` [Example 7], for which the IC50 at Factor Xa worked out at 0.023 µM; at C1s, 0.011 µM; at kallikrein it was 0.0013 µM; at Thrombin, 0.039 µM; at factor XIIa, 0.901 µM; on Factor D, 0.5 µM. For the same molecule, on Plasmin, the IC50 stood at 0.011 µM.

On to `N=C(N)c1cc2ccc(OC(=O)c3ccsc3)cc2s1` [Example 11], for which the IC50 was found to be 0.006 µM at Factor Xa; 0.0043 µM at C1s; 0.0016 µM at kallikrein; 0.039 µM on Thrombin; 0.0127 µM on factor XIIa; 0.175 µM on Factor D. Besides, the IC50 on Plasmin worked out at 0.009 µM.

For the molecule `N=C(N)c1ccc2cc(OC(=O)c3ccccc3)ccc2c1` [reference, reference compound], the IC50 is 7.17 µM at Factor Xa, 0.04 µM on C1s, 3.11 µM at Thrombin and 4 µM on Factor D.

Turning to `N=C(N)c1cc2ccc(OC(=O)c3cccs3)cc2o1` [Example 2], the half-inhibitory concentration (IC50) at Factor Xa was found to be 0.996 µM; at C1s it was 0.519 µM; at Thrombin, 0.52 µM; at Factor D, 9.11 µM; at Plasmin, 0.817 µM.

Consider `N=C(N)c1cc2ccc(OC(=O)c3cccs3)cc2s1` [Example 9], for which the IC50 is 0.0032 µM on Factor Xa; 0.0016 µM at C1s; 0.0014 µM on kallikrein; 0.042 µM on Thrombin; 0.006 µM on factor XIIa; 0.096 µM at Factor D. Further, the 50% inhibitory concentration (IC50) on Plasmin worked out at 0.0041 µM.

On to `N=C(N)c1cc2ccc(OC(=O)c3ccoc3)cc2s1` [Example 10], for which the IC50 is 0.001 µM at Factor Xa; 0.0041 µM at C1s; 0.0016 µM at kallikrein; 0.047 µM at Thrombin; 0.0174 µM at factor XIIa; 0.177 µM at Factor D. Moreover, on Plasmin, the IC50 was 0.001 µM.

Turning to `N=C(N)c1cc2ccc(OC(=O)c3ccco3)cc2s1` [Example 8], the concentration for half-maximal inhibition (IC50) on Factor Xa amounted to 0.001 µM; at C1s, 0.0017 µM; on kallikrein, 0.0014 µM; on Thrombin it was 0.044 µM; on factor XIIa it was 0.0054 µM; at Factor D, 0.147 µM. At Plasmin, the IC50 was determined as 0.001 µM.

`CC/C=C/C(=O)Oc1ccc2cc(C(=N)N)sc2c1` [Example 20]: the half-inhibitory concentration (IC50) at Factor Xa turned out to be 0.005 µM; at C1s it was 0.006 µM; on kallikrein it was 0.012 µM; on Thrombin, 0.047 µM; at factor XIIa, 0.027 µM; at Factor D, 0.19 µM. Further, at Plasmin, the half-maximal inhibitory concentration (IC50) came to 0.006 µM.

As to `N=C(N)c1cc2cc(OC(=O)c3ccoc3)ccc2o1` [Example 5], the IC50 on Factor Xa is 1.58 µM; at C1s, 0.076 µM; on Thrombin it was 0.104 µM; on Factor D, 2.85 µM; on Plasmin, 0.325 µM.

`N=C(N)c1cc2cc(OC(=O)c3ccsc3)ccc2o1` [Example 6]: the IC50 amounted to 0.5 µM at Factor Xa; 0.122 µM on C1s; 0.361 µM at Thrombin; 10.8 µM at Factor D; 0.546 µM on Plasmin.

Take `N=C(N)c1nc2ccc(OC(=O)c3ccc(Cl)s3)cc2s1` [Example 17]: the IC50 on Factor Xa was found to be 0.002 µM; at C1s, 0.002 µM; at Thrombin it was 0.048 µM; on Factor D, 0.26 µM; at Plasmin, 0.003 µM.

With `N=C(N)c1cc2cc(OC(=O)c3cccs3)ccc2o1` [Example 4], the IC50 amounted to 0.88 µM on Factor Xa; 0.05 µM at C1s; 0.124 µM on Thrombin; 5.59 µM on Factor D; 0.116 µM on Plasmin.

With `N=C(N)C1COc2cc(OC(=O)c3ccco3)ccc2C1` (centres unmarked) [Example 19], the IC50 at C1s is 0.75 µM; at kallikrein, 0.661 µM; on Factor D, 50 µM.

What is called IC50 is the concentration needed to halve the response being measured.
